Measured values taken from ChEMBL document CHEMBL1201862, “PubChem BioAssay data set” (2004).
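Cultured in 96-well plates, cells were exposed to test compound for 48 hours across five concentrations. GI50: concentration for 50% inhibition of growth.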 The source made the active and inactive calls. No stated cut-off is given here; in the data, active = GI50 up to about 1.1 µM and inactive = higher.

How the values were obtained:
Test in all cases: NCI tumour cell line growth inhibition, 48 h
786-0 = test system: 786-0
A549 = test system: A549
DU-145 = test system: DU-145
HCC 2998 = test system: HCC 2998
M14 = test system: M14
MCF7 = test system: MCF7
MDA-MB-435 = test system: MDA-MB-435
MOLT-4 = test system: MOLT-4
Malme-3M = test system: Malme-3M
NCI-H226 = test system: NCI-H226
NCI-H23 = test system: NCI-H23
OVCAR-3 = test system: OVCAR-3
OVCAR-8 = test system: OVCAR-8
RPMI-8226 = test system: RPMI-8226
SN12C = test system: SN12C
SNB-19 = test system: SNB-19
SW-620 = test system: SW-620
UACC-257 = test system: UACC-257
UACC-62 = test system: UACC-62
UO-31 = test system: UO-31

Measured: GI50

C=C1C(=O)OC2/C=C(\C)C(=O)CC3OC(C)(C)OC3(C)CC(OC(=O)/C(C)=C/C)C12 (centres undefined)
inactive: 786-0 7.66 µM | A549 48.8 µM | DU-145 19.4 µM | HCC 2998 15.9 µM | M14 22.5 µM | MCF7 7.46 µM | MDA-MB-435 19.6 µM | MOLT-4 6.61 µM | Malme-3M 10.9 µM | NCI-H226 23.4 µM | NCI-H23 20.2 µM | OVCAR-3 10.8 µM | OVCAR-8 20.6 µM | RPMI-8226 3.66 µM | SN12C 20.7 µM | SNB-19 > 80.9 µM | SW-620 4.69 µM | UACC-257 13.7 µM | UACC-62 9.98 µM | UO-31 13.9 µM

CCc1cccc(CC)c1NC(=S)NC(=O)c1ccc(Br)cc1
inactive: 786-0 30.1 µM | A549 32.8 µM | DU-145 75.7 µM | HCC 2998 33.2 µM | M14 26.8 µM | MCF7 20.6 µM | MDA-MB-435 23 µM | MOLT-4 18.8 µM | Malme-3M 18.4 µM | NCI-H226 21.5 µM | NCI-H23 29.6 µM | OVCAR-3 36.3 µM | OVCAR-8 54.5 µM | RPMI-8226 33.1 µM | SN12C 32.6 µM | SNB-19 40.9 µM | SW-620 36.5 µM | UACC-257 32.2 µM | UACC-62 19.7 µM | UO-31 26.3 µM

N=c1oc2ccccc2cc1C(=O)Nc1nccs1
inactive: 786-0 2.37 µM | A549 44.6 µM | DU-145 20.9 µM | HCC 2998 35.2 µM | M14 19 µM | MCF7 5.7 µM | MDA-MB-435 25.8 µM | MOLT-4 4.8 µM | Malme-3M 35.6 µM | NCI-H226 19.7 µM | NCI-H23 35.8 µM | OVCAR-3 9.31 µM | OVCAR-8 16.8 µM | RPMI-8226 14.1 µM | SN12C 46.9 µM | SNB-19 52.2 µM | SW-620 19.9 µM | UACC-257 27 µM | UACC-62 32.2 µM
active: UO-31 0.031 µM

CCc1cccc(C(C)C)c1NC1=C([n+]2ccc(C)cc2)C(=O)c2ccccc2C1=O.[O-][Cl+3]([O-])([O-])[O-]
inactive: A549 2.37 µM | HCC 2998 3.21 µM | MDA-MB-435 1.7 µM | Malme-3M 2.12 µM | NCI-H226 1.39 µM | NCI-H23 1.93 µM | SNB-19 1.83 µM | UO-31 1.23 µM
active: 786-0 0.481 µM | DU-145 0.667 µM | M14 0.944 µM | MCF7 0.27 µM | MOLT-4 0.3 µM | OVCAR-3 0.647 µM | OVCAR-8 0.962 µM | RPMI-8226 0.423 µM | SN12C 0.475 µM | SW-620 0.861 µM | UACC-257 0.993 µM | UACC-62 0.822 µM

Oc1ccc(-c2nn3c(CCCCCCCCc4nnc5sc(-c6ccc(O)cc6)nn45)nnc3s2)cc1
inactive: 786-0 > 100 µM | A549 > 100 µM | DU-145 > 100 µM | HCC 2998 > 100 µM | M14 > 100 µM | MCF7 > 100 µM | MDA-MB-435 > 100 µM | MOLT-4 95.7 µM | Malme-3M > 100 µM | NCI-H226 > 100 µM | NCI-H23 > 100 µM | OVCAR-3 > 100 µM | OVCAR-8 > 100 µM | RPMI-8226 > 100 µM | SN12C > 100 µM | SNB-19 > 100 µM | SW-620 > 100 µM | UACC-257 > 100 µM | UACC-62 > 100 µM | UO-31 > 100 µM

CC(CN(C)C)C(O)(c1ccccc1)c1ccccc1 (centres undefined)
inactive: 786-0 > 100 µM | A549 > 100 µM | DU-145 > 100 µM | HCC 2998 27.2 µM | M14 > 100 µM | MCF7 > 100 µM | MDA-MB-435 > 100 µM | MOLT-4 > 100 µM | Malme-3M > 100 µM | NCI-H226 > 100 µM | NCI-H23 > 100 µM | OVCAR-3 > 100 µM | OVCAR-8 > 100 µM | RPMI-8226 > 100 µM | SN12C > 100 µM | SNB-19 > 100 µM | SW-620 > 100 µM | UACC-257 > 100 µM | UACC-62 > 100 µM | UO-31 > 100 µM

N#CC(C#N)=C(N)/C(C#N)=C/c1ccc(O)c(O)c1
inactive: 786-0 > 91.8 µM | A549 > 100 µM | DU-145 > 100 µM | HCC 2998 > 100 µM | M14 > 100 µM | MCF7 75.2 µM | MDA-MB-435 87.1 µM | MOLT-4 47.9 µM | Malme-3M > 100 µM | NCI-H226 46.3 µM | NCI-H23 > 100 µM | OVCAR-3 37.5 µM | OVCAR-8 40.5 µM | RPMI-8226 71.3 µM | SNB-19 > 92.5 µM | SW-620 50.2 µM | UACC-257 > 95.5 µM | UACC-62 49 µM | UO-31 37.2 µM
